Experimental data published in patent US8940731B2, “Substituted pyridyl amide compounds as modulators of the histamine H3 receptor” (Janssen Pharmaceutica NV, priority 2006, dated 2015).
Structures can show the parent of a compound that is named as a salt.

What was measured:
[1] = biological target: T1, cloned human H3 receptors (Homo sapiens, UniProt Q9Y5N1); assay: H3 Receptor Binding (Human); conditions: cloned human H3 receptors stably expressed in SK-N-MC cells; average of the results obtained; read-out: Human H3 Ki
T1 construct: expressed in transfected cells
Method: H3 Receptor Binding (Human)
Binding of compounds to the cloned human H3 receptors, stably expressed in SK-N-MC cells, was performed as described by Barbier, A. J. et al. (Br. J. Pharmacol. 2004, 143(5), 649-661).

[2] = biological target: Rat H3 (Rattus norvegicus, UniProt Q9QYN8); assay: H3 Receptor Binding (Rat); conditions: rat brain membranes without cerebellum, 0.8 nM N-[3H]-α-methylhistamine, 60 min at 25° C.; average of the results obtained
Method: H3 Receptor Binding (Rat)
A rat brain without cerebellum (Zivic Laboratories Inc., Pittsburgh, Pa.) was homogenized in 50 mM Tris-HCl/5 mM EDTA and centrifuged at 1,000 rpm for 5 min. The supernatant was removed and recentrifuged at 15,000 rpm for 30 min. Pellets were rehomogenized in 50 mM Tris/5 mM EDTA (pH 7.4). Membranes were incubated with 0.8 nM N-[^3H]-α-methylhistamine plus/minus test compounds for 60 min at 25° C. and harvested by rapid filtration over GF/C glass fiber filters (pretreated with 0.3% polyethylenimine) followed by four washes with buffer. Nonspecific binding was defined in the presence of 100 μM histamine.

[3] = biological target: T2, human H3 receptor (Homo sapiens, UniProt Q9Y5N1); assay: Cyclic AMP Accumulation (human H3 receptor); format: cell-based
T2 construct: expressed in transfected cells; host or cells: SK-N-MC sublines with a reporter construct
Text: Sublines of SK-N-MC cells were created that expressed a reporter construct and either the human or rat H3 receptor.

Sequence of Rat H3 (Q9QYN8 1-397 isoform Q9QYN8-3): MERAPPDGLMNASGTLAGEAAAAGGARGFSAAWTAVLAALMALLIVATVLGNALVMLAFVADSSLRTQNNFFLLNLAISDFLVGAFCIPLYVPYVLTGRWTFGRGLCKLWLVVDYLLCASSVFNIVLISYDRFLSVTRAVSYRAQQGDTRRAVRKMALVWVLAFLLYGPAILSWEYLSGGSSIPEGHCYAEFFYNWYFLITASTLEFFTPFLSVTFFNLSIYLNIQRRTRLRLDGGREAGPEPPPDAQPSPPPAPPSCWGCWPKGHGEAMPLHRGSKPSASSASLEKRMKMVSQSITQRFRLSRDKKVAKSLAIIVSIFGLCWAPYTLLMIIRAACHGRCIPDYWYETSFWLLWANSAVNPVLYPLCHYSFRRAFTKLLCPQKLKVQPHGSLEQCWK
T1 sequence (Q9Y5N1 whole entry): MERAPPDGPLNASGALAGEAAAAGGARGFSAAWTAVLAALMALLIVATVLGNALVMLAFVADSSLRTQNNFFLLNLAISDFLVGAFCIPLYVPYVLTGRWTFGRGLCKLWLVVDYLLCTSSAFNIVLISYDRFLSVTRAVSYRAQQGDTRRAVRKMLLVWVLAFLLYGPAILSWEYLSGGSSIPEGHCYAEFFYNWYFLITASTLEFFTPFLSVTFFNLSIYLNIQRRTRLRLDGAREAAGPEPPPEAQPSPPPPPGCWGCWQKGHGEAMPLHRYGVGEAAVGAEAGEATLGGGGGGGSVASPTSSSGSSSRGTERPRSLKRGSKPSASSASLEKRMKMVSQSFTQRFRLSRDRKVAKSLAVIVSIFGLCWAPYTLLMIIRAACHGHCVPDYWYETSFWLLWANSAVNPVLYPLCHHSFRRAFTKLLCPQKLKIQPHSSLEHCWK
T2 sequence (Q9Y5N1 whole entry): as above

Ki [1] [µM] | Ki [2] [µM] | Human pA2 ([3]; SK-N-MC subline expressing reporter construct and human H3 receptor, average) | SMILES | Kb [3] [µM]
0.007 | 0.447 | 8.53 | N#Cc1cccc(Oc2ccc(C(=O)N3CCCN(C4CC4)CC3)cn2)c1 [Example 11, 3-[5-(4-Cyclopropyl-[1,4]diazepane-1-carbonyl)-pyridin-2-yloxy]-benzonitrile] | –
0.006 | 0.054 | – | O=C(c1ccc(Oc2ccccc2)nc1)N1CCCN(C2CC2)CC1 [Example 13, (4-Cyclopropyl-[1,4]diazepan-1-yl)-(6-phenoxy-pyridin-3-yl)-methanone] | –
0.002 | 0.068 | – | O=C(c1ccc(Oc2ccc(F)cc2)nc1)N1CCCN(C2CC2)CC1 [Example 18, (4-Cyclopropyl-[1,4]diazepan-1-yl)-[6-(4-fluoro-phenoxy)-pyridin-3-yl]-methanone] | –
0.002 | 0.016 | – | O=C(c1ccc(Oc2ccccc2)nc1)N1CCCN(C2CCC2)CC1 [Example 21, (4-Cyclobutyl-[1,4]diazepan-1-yl)-(6-phenoxy-pyridin-3-yl)-methanone] | –
0.003 | 0.07 | – | O=C(c1ccc(Oc2cccc(Cl)c2)nc1)N1CCCN(C2CC2)CC1 [Example 23, [6-(3-Chloro-phenoxy)-pyridin-3-yl]-(4-cyclopropyl-[1,4]diazepan-1-yl)-methanone] | –
0.004 | 0.086 | – | O=C(c1ccc(Oc2ccc(F)c(F)c2)nc1)N1CCCN(C2CC2)CC1 [Example 27, (4-Cyclopropyl-[1,4]diazepan-1-yl)-[6-(3,4-difluoro-phenoxy)-pyridin-3-yl]-methanone] | –
0.004 | 0.092 | – | O=C(c1ccc(Oc2ccc(F)cc2F)nc1)N1CCCN(C2CC2)CC1 [Example 32, (4-Cyclopropyl-[1,4]diazepan-1-yl)-[6-(2,4-difluoro-phenoxy)-pyridin-3-yl]-methanone] | –
0.005 | 0.13 | – | O=C(c1ccc(Oc2cccc(F)c2)nc1)N1CCCN(C2CC2)CC1 [Example 37, (4-Cyclopropyl-[1,4]diazepan-1-yl)-[6-(3-fluoro-phenoxy)-pyridin-3-yl]-methanone] | –
0.004 | 0.075 | – | CSc1ccc(Oc2ccc(C(=O)N3CCCN(C4CC4)CC3)cn2)cc1C [Example 41, (4-Cyclopropyl-[1,4]diazepan-1-yl)-[6-(3-methyl-4-methylsulfanyl-phenoxy)-pyridin-3-yl]-methanone] | –
0.002 | – | – | O=C(c1ccc(Oc2ccc(F)cc2)cn1)N1CCCN(C2CCC2)CC1 [Example 69, (4-Cyclobutyl-[1,4]diazepan-1-yl)-[5-(4-fluoro-phenoxy)-pyridin-2-yl]-methanone trifluoroacetic acid salt] | –
0.022 | – | – | O=C(c1ccc(Oc2ccc(Cl)cc2)nc1)N1CCN(C2CCCC2)CC1 [Example 77, [6-(4-Chloro-phenoxy)-Pyridin-3-yl]-(4-cyclopentyl-piperazin-1-yl)-methanone] | –
0.01 | – | – | O=C(c1ccc(Oc2ccc(F)cc2)nc1)N1CCN(C2CCC2)CC1 [Example 79, (4-Cyclobutyl-piperazin-1-yl)-[6-(4-fluoro-phenoxy)-pyridin-3-yl]-methanone] | –
0.253 | – | – | CN1CCCN(C(=O)c2ccc(Oc3ccc(F)cc3)nc2)CC1 [Example 80, [6-(4-Fluoro-phenoxy)-pyridin-3-yl]-(4-methyl-[1,4]diazepan-1-yl)-methanone] | –
0.25 | – | – | CN1CCCN(C(=O)c2ccc(Oc3ccc(F)cc3)nc2)CC1 [Example 92, [6-(4-Fluoro-phenoxy)-pyridin-3-yl]-(4-methyl-[1,4]diazepan-1-yl)-methanone] | –
0.058 | – | – | CC(C)CN1CCN(C(=O)c2ccc(Oc3ccc(F)cc3)nc2)CC1 [Example 93, [6-(4-Fluoro-phenoxy)-pyridin-3-yl]-(4-isobutyl-piperazin-1-yl)-methanone] | –
0.001 | – | – | O=C(c1ccc(Sc2ccc(F)cc2)nc1)N1CCCN(C2CCC2)CC1 [Example 97, (4-Cyclobutyl-[1,4]diazepan-1-yl)-[6-(4-fluoro-phenylsulfanyl)-pyridin-3-yl]-methanone] | –
0.019 | – | – | CCN1CCCN(C(=O)c2ccc(Oc3ccc(F)cc3)nc2)CC1 [Example 98, (4-Ethyl-[1,4]diazepan-1-yl)-[6-(4-fluoro-phenoxy)-pyridin-3-yl]-methanone] | –
0.028 | – | – | CC(C)N1CCN(C(=O)c2ccc(Oc3ccc(F)cc3)nc2)CC1 [Example 99, [6-(4-Fluoro-phenoxy)-pyridin-3-yl]-(4-isopropyl-piperazin-1-yl)-methanone] | –
0.001 | – | – | Cc1cccc(Oc2ccc(C(=O)N3CCCN(C4CCC4)CC3)cn2)c1 [Example 103, (4-Cyclobutyl-[1,4]diazepan-1-yl)-(6-m-tolyloxy-pyridin-3-yl)-methanone] | –
0.011 | 0.032 | – | CSc1ccc(Oc2ccc(C(=O)N3CCCN(C4CCC4)CC3)cn2)cc1 [Example 105, (4-Cyclobutyl-[1,4]diazepan-1-yl)-[6-(4-methylsulfanyl-phenoxy)-pyridin-3-yl]-methanone] | –

The remaining lines, values behind:

SMILES | Ki [1] [µM] | Ki [2] [µM] | Human pA2 ([3]; SK-N-MC subline expressing reporter construct and human H3 receptor, average) | Kb [3] [µM]
Cc1cc(Oc2ccc(C(=O)N3CCCN(C4CC4)CC3)cn2)ccc1Cl [Example 12, [6-(4-Chloro-3-methyl-phenoxy)-pyridin-3-yl]-(4-cyclopropyl-[1,4]diazepan-1-yl)-methanone] | 0.005 | 0.051 | – | 0.0055
N#Cc1cccc(Oc2ccc(C(=O)N3CCCN(C4CCC4)CC3)cn2)c1 [Example 20, 3-[5-(4-Cyclobutyl-[1,4]diazepane-1-carbonyl)-pyridin-2-yloxy]-benzonitrile] | 0.001 | 0.017 | – | –
O=C(c1ccc(Oc2cc(F)cc(F)c2)nc1)N1CCCN(C2CCC2)CC1 [Example 36, (4-Cyclobutyl-[1,4]diazepan-1-yl)-[6-(3,5-difluoro-phenoxy)-pyridin-3-yl]-methanone] | 0.001 | 0.03 | – | –
O=C(c1ccc(Oc2ccc(Cl)c(Cl)c2)cn1)N1CCCN(C2CC2)CC1 [Example 52, (4-Cyclopropyl-[1,4]diazepan-1-yl)-[5-(3,4-dichloro-phenoxy)-pyridin-2-yl]-methanone trifluoroacetic acid salt] | 0.004 | 0.11 | – | –
Cc1cc(Oc2ccc(C(=O)N3CCCN(C4CC4)CC3)nc2C#N)ccc1Cl [Example 57, 3-(4-Chloro-3-methyl-phenoxy)-6-(4-cyclopropyl-[1,4]diazepane-1-carbonyl)-pyridine-2-carbonitrile] | 0.003 | 0.132 | – | –
O=C(c1ccc(Oc2cccc(F)c2)cn1)N1CCCN(C2CCC2)CC1 [Example 71, (4-Cyclobutyl-[1,4]diazepan-1-yl)-[5-(3-fluoro-phenoxy)-pyridin-2-yl]-methanone trifluoroacetic acid salt] | 0.002 | – | – | –
O=C(c1ccc(Oc2ccccc2F)cn1)N1CCCN(C2CCC2)CC1 [Example 72, (4-Cyclobutyl-[1,4]diazepan-1-yl)-[5-(2-fluoro-phenoxy)-pyridin-2-yl]-methanone] | 0.002 | – | – | –
CC(C)N1CCN(C(=O)c2ccc(Oc3ccccc3Cl)nc2)CC1 [Example 75, [6-(2-Chloro-phenoxy)-pyridin-3-yl]-(4-isopropyl-piperazin-1-yl)-methanone] | 0.009 | – | – | –
O=C(c1ccc(Oc2ccccc2Cl)nc1)N1CCN(C2CCCC2)CC1 [Example 76, [6-(2-Chloro-phenoxy)-Pyridin-3-yl]-(4-cyclopentyl-piperazin-1-yl)-methanone] | 0.019 | – | – | –
O=C(c1ccc(Oc2ccccc2F)nc1)N1CCN(C2CCCC2)CC1 [Example 78] | 0.024 | – | – | –
N#Cc1nc(C(=O)N2CCCN(C3CC3)CC2)ccc1Oc1ccccc1 [Example 81, 6-(4-Cyclopropyl-[1,4]diazepane-1-carbonyl)-3-phenoxy-pyridine-2-carbonitrile] | 0.003 | – | – | –
N#Cc1nc(C(=O)N2CCCN(C3CCC3)CC2)ccc1Oc1ccc(F)cc1 [Example 82, 6-(4-Cyclobutyl-[1,4]diazepane-1-carbonyl)-3-(4-fluoro-phenoxy)-pyridine-2-carbonitrile] | 0.001 | – | – | –
O=C(c1ccc(Sc2ccc(F)cc2)cn1)N1CCCN(C2CCC2)CC1 [Example 84, (4-Cyclobutyl-[1,4]diazepan-1-yl)-[5-(4-fluoro-phenylsulfanyl)-pyridin-2-yl]-methanone trifluoroacetic acid salt] | 0.002 | 0.037 | – | –
O=C(c1ccc(Sc2ccc(Cl)cc2)nc1)N1CCCN(C2CCC2)CC1 [Example 85, [6-(4-Chloro-phenylsulfanyl)-pyridin-3-yl]-(4-cyclobutyl-[1,4]diazepan-1-yl)-methanone] | 0.001 | – | – | –
O=C(c1ccc(Sc2ccccc2)cn1)N1CCCN(C2CCC2)CC1 [Example 91, (4-Cyclobutyl-[1,4]diazepan-1-yl)-(5-phenylsulfanyl-pyridin-2-yl)-methanone] | 0.003 | – | – | –
CSc1ccc(Oc2ccc(C(=O)N3CCN(C4CCCC4)CC3)cn2)cc1C [Example 100, (4-Cyclopentyl-piperazin-1-yl)-[6-(3-methyl-4-methylsulfanyl-phenoxy)-pyridin-3-yl]-methanone] | 0.098 | – | – | –
CSc1ccc(Oc2ccc(C(=O)N3CCN(C(C)C)CC3)cn2)cc1C [Example 101, (4-Isopropyl-piperazin-1-yl)-[6-(3-methyl-4-methylsulfanyl-phenoxy)-pyridin-3-yl]-methanone] | 0.059 | – | – | –
